Reference: ChEMBL document CHEMBL1909046, “DrugMatrix in vitro pharmacology data”
pIC50, pKi: −log10 of the molar value.

What was measured:
[1] = DRUGMATRIX: Calcium Channel Type L, Phenylalkylamine radioligand binding (ligand: [3H] (-)-Desmethoxyverapamil (D-888)); assay type: cell membranes, Rattus norvegicus, Wistar, Brain, Membrane; conditions: Not Active = under 50% inhibition at 10 µM
[2] = DRUGMATRIX: GABAA, Muscimol, Central radioligand binding (ligand: [3H] Muscimol); assay type: cell membranes, Rattus norvegicus, Wistar, Brain, Membrane; conditions: Not Active = under 50% inhibition at 10 µM
Mu-type opioid receptor = Mu-type opioid receptor (Homo sapiens, UniProt P35372); assay: DRUGMATRIX: Opiate mu (OP3, MOP) radioligand binding (ligand: [3H] Diprenorphine); assay type: cell membranes, CHO-K1, Membrane; conditions: cho-k1; Not Active = under 50% inhibition at 10 µM
Sequence of Mu-type opioid receptor (P35372 whole entry): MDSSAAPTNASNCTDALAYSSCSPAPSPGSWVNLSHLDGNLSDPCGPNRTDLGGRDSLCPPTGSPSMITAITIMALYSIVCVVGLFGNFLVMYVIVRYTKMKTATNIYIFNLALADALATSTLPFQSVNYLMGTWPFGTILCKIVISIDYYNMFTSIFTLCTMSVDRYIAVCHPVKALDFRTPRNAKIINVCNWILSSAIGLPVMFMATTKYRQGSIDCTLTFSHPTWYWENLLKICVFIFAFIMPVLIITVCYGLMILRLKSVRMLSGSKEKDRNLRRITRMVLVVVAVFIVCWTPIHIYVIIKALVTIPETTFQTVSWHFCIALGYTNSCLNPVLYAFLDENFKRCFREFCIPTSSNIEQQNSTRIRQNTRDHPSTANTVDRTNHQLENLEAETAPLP

[3] = DRUGMATRIX: Potassium Channel [KATP] radioligand binding (ligand: [3H] Glyburide); assay type: cell membranes, Membrane; conditions: hit-t15, Not Active = under 50% inhibition at 10 µM
Cytochrome P450 2A6 = target: T1, Cytochrome P450 2A6 (Homo sapiens, UniProt P11509); conditions: bti-tn-5b1-4; further: in other assays of this panel Not Active means under 50% inhibition at 10 µM
T1 sequence (P11509 whole entry): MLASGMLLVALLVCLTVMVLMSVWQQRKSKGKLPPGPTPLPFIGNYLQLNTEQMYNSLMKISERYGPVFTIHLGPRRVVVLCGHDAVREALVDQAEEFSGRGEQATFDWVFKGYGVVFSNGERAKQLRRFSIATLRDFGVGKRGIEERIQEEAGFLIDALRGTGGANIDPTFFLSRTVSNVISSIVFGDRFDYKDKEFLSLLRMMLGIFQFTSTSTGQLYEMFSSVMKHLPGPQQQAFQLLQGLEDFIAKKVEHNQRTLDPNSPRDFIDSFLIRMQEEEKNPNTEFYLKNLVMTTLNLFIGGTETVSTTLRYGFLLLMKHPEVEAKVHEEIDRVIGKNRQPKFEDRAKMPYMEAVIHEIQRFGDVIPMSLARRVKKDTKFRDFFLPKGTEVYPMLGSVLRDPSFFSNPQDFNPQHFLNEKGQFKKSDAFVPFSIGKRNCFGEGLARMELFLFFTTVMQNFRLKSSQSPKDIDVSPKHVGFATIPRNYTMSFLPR

Cytochrome P450 2D6 = Cytochrome P450 2D6 (Homo sapiens, UniProt P10635); conditions: bti-tn-5b1-4; further: in other assays of this panel Not Active means under 50% inhibition at 10 µM
Sequence of Cytochrome P450 2D6 (P10635 whole entry): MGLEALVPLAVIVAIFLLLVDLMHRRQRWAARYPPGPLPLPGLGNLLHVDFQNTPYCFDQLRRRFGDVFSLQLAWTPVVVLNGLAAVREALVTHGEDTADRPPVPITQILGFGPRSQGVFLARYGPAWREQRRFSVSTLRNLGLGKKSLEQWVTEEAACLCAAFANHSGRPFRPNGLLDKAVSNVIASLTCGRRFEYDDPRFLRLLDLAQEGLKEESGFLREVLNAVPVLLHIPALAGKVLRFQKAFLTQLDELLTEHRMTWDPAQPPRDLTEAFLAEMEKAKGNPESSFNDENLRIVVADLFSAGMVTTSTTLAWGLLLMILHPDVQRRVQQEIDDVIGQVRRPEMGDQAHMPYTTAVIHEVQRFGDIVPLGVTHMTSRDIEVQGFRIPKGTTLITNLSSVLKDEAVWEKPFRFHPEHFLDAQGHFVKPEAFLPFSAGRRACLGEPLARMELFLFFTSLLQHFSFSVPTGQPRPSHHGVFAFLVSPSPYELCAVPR

[4] = target: Voltage-gated inwardly rectifying potassium channel KCNH2 (Homo sapiens, UniProt Q12809); conditions: hek293; further: in other assays of this panel Not Active means under 50% inhibition at 10 µM
Sequence of Voltage-gated inwardly rectifying potassium channel KCNH2 (Q12809 whole entry): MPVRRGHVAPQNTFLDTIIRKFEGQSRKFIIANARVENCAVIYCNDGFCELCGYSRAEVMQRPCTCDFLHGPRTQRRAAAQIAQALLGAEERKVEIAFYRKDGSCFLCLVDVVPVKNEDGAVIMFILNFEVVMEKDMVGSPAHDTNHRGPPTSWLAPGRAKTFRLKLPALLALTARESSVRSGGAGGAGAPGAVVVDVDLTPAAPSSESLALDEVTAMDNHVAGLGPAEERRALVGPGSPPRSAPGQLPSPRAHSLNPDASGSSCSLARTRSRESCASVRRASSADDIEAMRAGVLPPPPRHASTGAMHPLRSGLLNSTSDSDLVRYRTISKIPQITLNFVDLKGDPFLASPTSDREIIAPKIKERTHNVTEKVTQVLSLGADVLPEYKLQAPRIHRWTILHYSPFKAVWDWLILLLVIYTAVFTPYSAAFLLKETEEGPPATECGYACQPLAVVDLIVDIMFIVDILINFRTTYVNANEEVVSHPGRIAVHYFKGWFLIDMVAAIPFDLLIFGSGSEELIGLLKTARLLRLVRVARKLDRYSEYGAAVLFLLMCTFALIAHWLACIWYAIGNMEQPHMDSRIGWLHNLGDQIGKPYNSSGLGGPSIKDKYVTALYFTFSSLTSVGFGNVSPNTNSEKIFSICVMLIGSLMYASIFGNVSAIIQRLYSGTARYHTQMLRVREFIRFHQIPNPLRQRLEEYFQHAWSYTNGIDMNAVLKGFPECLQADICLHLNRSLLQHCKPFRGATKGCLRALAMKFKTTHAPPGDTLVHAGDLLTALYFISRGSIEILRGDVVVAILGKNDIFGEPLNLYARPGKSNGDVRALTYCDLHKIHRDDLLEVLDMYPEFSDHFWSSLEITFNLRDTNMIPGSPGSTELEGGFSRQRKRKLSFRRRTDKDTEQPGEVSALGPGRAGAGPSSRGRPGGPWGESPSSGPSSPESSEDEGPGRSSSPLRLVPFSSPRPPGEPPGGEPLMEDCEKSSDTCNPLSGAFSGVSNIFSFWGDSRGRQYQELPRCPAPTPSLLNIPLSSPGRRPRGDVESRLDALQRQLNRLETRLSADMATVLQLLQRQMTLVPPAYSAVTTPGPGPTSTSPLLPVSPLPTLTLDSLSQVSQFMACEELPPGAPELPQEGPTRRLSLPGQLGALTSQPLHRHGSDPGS

## C[C@]12CC[C@@H]3c4ccc(O)cc4CC[C@H]3[C@@H]1C[C@@H](O)[C@@H]2O [ESTRIOL]
[1]
  IC50: Not Active
  Ki: Not Active
[2]
  IC50: Not Active
  Ki: Not Active
Mu-type opioid receptor
  IC50: Not Active
[3]
  IC50: Not Active
  Ki: Not Active
Cytochrome P450 2A6
  IC50: Not Active
  Ki: Not Active
Cytochrome P450 2D6
  IC50: Not Active
  Ki: Not Active
[4]
  IC50: Not Active
  Ki: Not Active

## CC(O)(P(=O)(O)O)P(=O)(O)O [ETIDRONIC ACID]
[1]
  IC50: Not Active
  Ki: Not Active
[2]
  IC50: Not Active
  Ki: Not Active
Mu-type opioid receptor
  IC50: Not Active
[3]
  IC50: Not Active
  Ki: Not Active
Cytochrome P450 2A6
  IC50: Not Active
  Ki: Not Active
Cytochrome P450 2D6
  IC50: Not Active
  Ki: Not Active
[4]
  IC50: Not Active
  Ki: Not Active

## CN1CCN(c2c(F)cc3c(=O)c(C(=O)O)cn(CCF)c3c2F)CC1 [FLEROXACIN]
[1]
  IC50: Not Active
  Ki: Not Active
[2]
  IC50: Not Active
  Ki: Not Active
Mu-type opioid receptor
  IC50: Not Active
[3]
  IC50: Not Active
  Ki: Not Active
Cytochrome P450 2A6
  IC50: Not Active
  Ki: Not Active
Cytochrome P450 2D6
  IC50: Not Active
  Ki: Not Active
[4]
  IC50: Not Active
  Ki: Not Active

## O=c1[nH]c(=O)n([C@H]2C[C@H](O)[C@@H](CO)O2)cc1F [FLOXURIDINE]
[1]
  IC50: Not Active
  Ki: Not Active
[2]
  IC50: Not Active
  Ki: Not Active
Mu-type opioid receptor
  IC50: Not Active
[3]
  IC50: Not Active
  Ki: Not Active
Cytochrome P450 2A6
  IC50: Not Active
  Ki: Not Active
Cytochrome P450 2D6
  IC50: Not Active
  Ki: Not Active
[4]
  IC50: Not Active
  Ki: Not Active

## COC(=O)Nc1nc2cc(C(=O)c3ccc(F)cc3)ccc2[nH]1 [FLUBENDAZOLE]
[1]
  IC50: Not Active
  Ki: Not Active
[2]
  IC50: Not Active
  Ki: Not Active
Mu-type opioid receptor
  IC50: Not Active
[3]
  IC50: Not Active
  Ki: Not Active
Cytochrome P450 2A6
  IC50: Not Active
  Ki: Not Active
Cytochrome P450 2D6
  IC50: Not Active
  Ki: Not Active
[4]
  IC50: Not Active
  Ki: Not Active

## CC(=O)OCC(=O)[C@@]1(O)CC[C@H]2[C@@H]3CCC4=CC(=O)CC[C@]4(C)[C@@]3(F)[C@@H](O)C[C@@]21C [FLUDROCORTISONE ACETATE]
[1]
  IC50: Not Active
  Ki: Not Active
[2]
  IC50: Not Active
  Ki: Not Active
Mu-type opioid receptor
  IC50: Not Active
[3]
  IC50: Not Active
  Ki: Not Active
Cytochrome P450 2A6
  IC50: Not Active
  Ki: Not Active
Cytochrome P450 2D6
  IC50: Not Active
  Ki: Not Active
[4]
  IC50: Not Active
  Ki: Not Active

## CCOC(=O)c1ncn2c1CN(C)C(=O)c1cc(F)ccc1-2 [FLUMAZENIL]
[1]
  IC50: Not Active
  Ki: Not Active
[2]
  IC50: Not Active
  Ki: Not Active
Mu-type opioid receptor
  IC50: Not Active
[3]
  IC50: Not Active
  Ki: Not Active
Cytochrome P450 2A6
  IC50: Not Active
  Ki: Not Active
Cytochrome P450 2D6
  IC50: Not Active
  Ki: Not Active
[4]
  IC50: Not Active
  Ki: Not Active

## O=C(O)P(=O)(O)O [FOSCARNET]
[1]
  IC50: Not Active
  Ki: Not Active
[2]
  IC50: Not Active
  Ki: Not Active
Mu-type opioid receptor
  IC50: Not Active
[3]
  IC50: Not Active
  Ki: Not Active
Cytochrome P450 2A6
  IC50: Not Active
  Ki: Not Active
Cytochrome P450 2D6
  IC50: Not Active
  Ki: Not Active
[4]
  IC50: Not Active
  Ki: Not Active

## Cc1ccc(C)c(OCCCC(C)(C)C(=O)O)c1 [GEMFIBROZIL]
[1]
  IC50: Not Active
  Ki: Not Active
[2]
  IC50: Not Active
  Ki: Not Active
Mu-type opioid receptor
  IC50: Not Active
[3]
  IC50: Not Active
  Ki: Not Active
Cytochrome P450 2A6
  IC50: Not Active
  Ki: Not Active
Cytochrome P450 2D6
  IC50: Not Active
  Ki: Not Active
[4]
  IC50: Not Active
  Ki: Not Active

## O=c1c(-c2ccc(O)cc2)coc2cc(O)cc(O)c12 [GENISTEIN]
[1]
  IC50: Not Active
  Ki: Not Active
[2]
  IC50: Not Active
  Ki: Not Active
Mu-type opioid receptor
  IC50: Not Active
[3]
  IC50: Not Active
  Ki: Not Active
Cytochrome P450 2A6
  IC50: Not Active
  Ki: Not Active
Cytochrome P450 2D6
  IC50: Not Active
  Ki: Not Active
[4]
  IC50: Not Active
  Ki: Not Active

## CCC1=C(C)CN(C(=O)NCCc2ccc(S(=O)(=O)NC(=O)N[C@H]3CC[C@H](C)CC3)cc2)C1=O [GLIMEPIRIDE]
[1]
  IC50: Not Active
  Ki: Not Active
[2]
  IC50: Not Active
  Ki: Not Active
Mu-type opioid receptor
  IC50: Not Active
[3]; read-out: IC50
  pIC50: 7.00
[3]; read-out: Ki
  pKi: 7.96
Cytochrome P450 2A6
  IC50: Not Active
  Ki: Not Active
Cytochrome P450 2D6
  IC50: Not Active
  Ki: Not Active
[4]
  IC50: Not Active
  Ki: Not Active
